pEC50, pIC50: −log10 of the molar value. The source made the active and inactive calls. The calls are words filed in the database; no cut-off is given here.

The test system of data set [1] is Human alphaherpesvirus 1. Put plainly: Antiviral activity against HSV-1 infected in African green monkey Vero cells assessed as inhibition of viral replication incubated for 3 days by MTT assay. Format: functional, organism-based. The conditions noted are these: Human alphaherpesvirus 1, Vero, 72 h.
Data set [2] relates to Human alphaherpesvirus 2. Nature of the data set: Antiviral activity against HSV-2 infected in African green monkey Vero cells assessed as inhibition of viral replication incubated for 3 days by MTT assay. Format: functional, organism-based. As to conditions: Human alphaherpesvirus 2, Vero, 72 h.
The nature of data set [3]: Cytotoxicity against African green monkey Vero cells assessed as reduction in cell viability incubated for 3 days by MTT assay. Format: toxicity, cell-based. As to conditions: chlorocebus sabaeus, time 3 day.
A further data set deals with HSV-1. Put plainly: Selectivity index, ratio of CC50 for african green monkey Vero cells to EC50 for HSV-1 infected in African green monkey Vero cells. The format is toxicity. As to conditions: HSV-1 infected Vero cells.
For another data set, the system named is HSV-2. Nature of the data set: Selectivity index, ratio of CC50 for african green monkey Vero cells to EC50 for HSV-2 infected in African green monkey Vero cells. As to conditions: HSV-2 infected Vero cells. Format: toxicity.
For another data set, the system named is Dengue virus. Put plainly: Antiviral activity against Dengue virus at 20 uM. The format is functional, organism-based.
Data set [4] has as its system Human alphaherpesvirus 1. Put plainly: Antiviral activity against HSV-1 infected in African green monkey Vero cells assessed as inhibition of syncytium formation at 0.63 to 10 uM coinfected for 1 hr and measured after 24 hrs by H&E staining based optical microscopic analysis. As to conditions: dose 0.63-10 µM, time 25.0 hrs. Format: functional, organism-based.
For data set [5], the system named is Human alphaherpesvirus 1. Put plainly: Antiviral activity against HSV-1 infected in African green monkey Vero cells assessed as reduction in plague formation at 10 uM measured after 48 hrs by crystal violet staining based plaque formation assay. Format: functional, organism-based.
Data set [6] deals with Human alphaherpesvirus 1. Put plainly: Antiviral activity against HSV-1 infected in African green monkey Vero cells assessed as reduction in virus-induced cytopathic effect measured after 48 hrs by MTT assay. The conditions noted are these: dose 0.63-10 µM. Format: functional, organism-based.
Data set [7] concerns Human alphaherpesvirus 2. Nature of the data set: Antiviral activity against HSV-2 infected in African green monkey Vero cells assessed as reduction in virus-induced cytopathic effect measured after 48 hrs by MTT assay. Format: functional, organism-based. As to conditions: dose 0.63-10 µM.
Data set [8] has as its system Human alphaherpesvirus 1. Put plainly: Antiviral activity against HSV-1 infected in African green monkey Vero cells assessed as reduction in plague formation measured after 48 hrs by crystal violet staining based plaque formation assay. Format: functional, organism-based. As to conditions: dose 0.63-10 µM.
The subject of data set [9] is Human alphaherpesvirus 2. Nature of the data set: Antiviral activity against HSV-2 infected in African green monkey Vero cells assessed as reduction in plague formation measured after 48 hrs by crystal violet staining based plaque formation assay. Format: functional, organism-based. The conditions noted are these: dose 0.63-10 µM.
Data set [10] concerns Human alphaherpesvirus 1. Nature of the data set: Antiviral activity against HSV-1 infected in African green monkey Vero cells assessed as reduction in virus induced glycoprotein D gene expression measured after 48 hrs by qRT-PCR analysis. The format is functional, organism-based. As to conditions: dose 0.63-10 µM.
Data set [11] concerns Human alphaherpesvirus 1. Nature of the data set: Antiviral activity against HSV-1 infected in African green monkey Vero cells assessed as reduction in virus induced VP16 gene expression measured after 48 hrs by qRT-PCR analysis. The format is functional, organism-based. The conditions noted are these: dose 0.63-10 µM.
The subject of data set [12] is Human alphaherpesvirus 2. Put plainly: Antiviral activity against HSV-2 infected in African green monkey Vero cells assessed as reduction in virus induced glycoprotein D gene expression measured after 48 hrs by qRT-PCR analysis. Format: functional, organism-based. The conditions noted are these: dose 0.63-10 µM.
Data set [13] relates to Human alphaherpesvirus 2. Put plainly: Antiviral activity against HSV-2 infected in African green monkey Vero cells assessed as reduction in virus induced VP16 gene expression measured after 48 hrs by qRT-PCR analysis. The format is functional, organism-based. As to conditions: dose 0.63-10 µM.
For data set [14], the system named is Human alphaherpesvirus 1. Put plainly: Antiviral activity against HSV-1 infected in African green monkey Vero cells assessed as reduction in virus induced gD protein expression at 2.5 uM by western blot analysis. Format: functional, organism-based.
Data set [15] concerns Human alphaherpesvirus 2. Nature of the data set: Antiviral activity against HSV-2 infected in African green monkey Vero cells assessed as reduction in virus induced gD protein expression at 1.3 uM by western blot analysis. Format: functional, organism-based.
For data set [16], the system named is Human alphaherpesvirus 2. Put plainly: Antiviral activity against HSV-2 infected in African green monkey Vero cells assessed as reduction in gD protein expression under co-treatment condition by western blot analysis. The format is functional, organism-based.
The subject of data set [17] is Human alphaherpesvirus 2. Put plainly: Antiviral activity against HSV-2 infected in African green monkey Vero cells assessed as inhibition of syncytium formation at 0.63 to 10 uM coinfected for 1 hr and measured after 24 hrs by H&E staining based optical microscopic analysis. The format is functional, organism-based. The conditions noted are these: dose 0.63-10 µM, time 25.0 hrs.

In a further data set the test system is Zika virus. Put plainly: Antiviral activity against Zika virus at 20 uM. Format: functional, organism-based.
In data set [18] the target is T1, Pancreatic triacylglycerol lipase (Homo sapiens) (UniProt P16233).
T1 sequence (whole entry): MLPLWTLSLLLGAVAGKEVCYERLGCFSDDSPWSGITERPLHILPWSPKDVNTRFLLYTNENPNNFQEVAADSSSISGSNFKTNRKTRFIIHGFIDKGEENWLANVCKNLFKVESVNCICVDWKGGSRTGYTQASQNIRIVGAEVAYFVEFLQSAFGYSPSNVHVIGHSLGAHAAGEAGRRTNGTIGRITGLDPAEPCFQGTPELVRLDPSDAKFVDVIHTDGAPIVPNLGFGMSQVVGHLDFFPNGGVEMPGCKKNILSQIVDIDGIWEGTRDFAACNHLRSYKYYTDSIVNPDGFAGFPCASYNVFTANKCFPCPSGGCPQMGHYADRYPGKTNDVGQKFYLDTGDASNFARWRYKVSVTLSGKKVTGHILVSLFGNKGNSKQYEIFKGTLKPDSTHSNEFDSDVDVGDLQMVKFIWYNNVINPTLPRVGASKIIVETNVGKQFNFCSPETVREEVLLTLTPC
Put plainly: Inhibition of pancreatic lipase (unknown origin) at 100 uM.

Another data set concerns the target Acetylcholinesterase (Homo sapiens, UniProt P22303). Put plainly: Inhibition of AChE (unknown origin).
Data set [19] has as its system Human alphaherpesvirus 2. Nature of the data set: Antiviral activity against HSV-2 infected in African green monkey Vero cells assessed as reduction in plague formation at 5 uM measured after 48 hrs by crystal violet staining based plaque formation assay. The format is functional, organism-based.

Chain of Acetylcholinesterase (P22303 whole entry): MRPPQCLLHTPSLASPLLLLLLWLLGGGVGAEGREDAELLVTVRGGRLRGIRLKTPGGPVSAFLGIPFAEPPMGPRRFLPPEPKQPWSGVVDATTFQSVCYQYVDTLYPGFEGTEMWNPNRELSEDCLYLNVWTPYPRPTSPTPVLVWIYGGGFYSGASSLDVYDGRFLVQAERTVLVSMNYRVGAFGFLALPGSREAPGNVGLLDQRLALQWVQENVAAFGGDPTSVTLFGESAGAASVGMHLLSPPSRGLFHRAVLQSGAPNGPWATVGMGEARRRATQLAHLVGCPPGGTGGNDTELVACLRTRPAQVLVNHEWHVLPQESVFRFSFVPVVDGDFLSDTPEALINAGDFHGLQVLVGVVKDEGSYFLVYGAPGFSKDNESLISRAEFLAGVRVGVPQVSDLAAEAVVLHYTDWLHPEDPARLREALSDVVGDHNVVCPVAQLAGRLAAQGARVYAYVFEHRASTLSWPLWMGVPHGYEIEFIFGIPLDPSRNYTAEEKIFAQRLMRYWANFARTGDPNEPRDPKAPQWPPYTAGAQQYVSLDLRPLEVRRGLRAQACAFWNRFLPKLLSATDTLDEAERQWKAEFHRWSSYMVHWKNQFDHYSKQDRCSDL

Take `COC(=O)c1cc(O)cc(OC)c1C(=O)c1c(O)cc(C)cc1O` [SULOCHRIN]: the pEC50 with Human alphaherpesvirus 1 [1] and in the data set on Human alphaherpesvirus 2 [2] was below 4.70 each time.

As for `COc1c(-c2ccc(O)c(O)c2)cc(O)c(-c2ccc(O)c(O)c2)c1O`, the figures for the pEC50 in the data set with Human alphaherpesvirus 1 [1] and in the data set with Human alphaherpesvirus 2 [2] were 5.42 and 5.38, respectively. Moreover, in data set [3], the CC50 at 72 h is above 100 µM. Further, the results for the selectivity ratio with HSV-1 and in the data set on HSV-2 were above 26.5 and above 23.8, respectively.

Take `COc1c(-c2ccc(O)c(O)c2)cc(O)c2c1oc1cc(O)c(O)cc12` [6'-DESMETHYLCANDIDUSIN B]: the results for the negative-log EC50 (pEC50) with Human alphaherpesvirus 1 [1] and with Human alphaherpesvirus 2 [2] were 5.39 and 5.68, respectively. In data set [3], the CC50 at 72 h is above 100 µM. Moreover, the selectivity ratio in the data set on HSV-1 is above 24.4; in the data set with HSV-2, above 48.5.

In the case of `Nc1nc2c(ncn2COCCO)c(=O)[nH]1` [ACYCLOVIR], the pEC50 in the data set with Human alphaherpesvirus 1 [1] was 5.44; in the data set on Human alphaherpesvirus 2 [2], 5.34. For the same molecule, the CC50 at 72 h in [3] was above 100 µM. For the same molecule, the selectivity ratio in the data set on HSV-1 is above 27.9; in the data set on HSV-2, above 21.9.

For the molecule `COc1c(-c2ccc(O)cc2)cc(O)c2c1oc1cc(O)c(O)cc12`, the results for the pEC50 in the data set with Human alphaherpesvirus 1 [1] and in the data set on Human alphaherpesvirus 2 [2] were 5.39 and 5.19, respectively. In addition, the CC50 at 72 h in data set [3] is above 100 µM. The selectivity ratio is above 24.7 in the data set on HSV-1 and above 15.4 with HSV-2.

Consider `O=C1C(c2ccc(O)cc2)=CC(=O)c2c1oc1cc(O)c(O)cc21`, for which the pEC50 in the data set on Human alphaherpesvirus 1 [1] and in the data set on Human alphaherpesvirus 2 [2] was below 4.70 throughout.

For the molecule `COc1c(-c2ccc(O)c(O)c2)cc2oc3cc(O)c(O)cc3c2c1O`, the results for the pEC50 with Human alphaherpesvirus 1 [1] and in the data set on Human alphaherpesvirus 2 [2] were 5.37 and 5.62, respectively. Further, the CC50 at 72 h in data set [3] is above 100 µM. Moreover, the selectivity ratio was above 23 in the data set with HSV-1 and above 41.5 in the data set on HSV-2.

As for `O=c1cc(-c2ccc(O)c(O)c2)c(-c2ccc(O)c(O)c2)co1`, the pEC50 in the data set with Human alphaherpesvirus 1 [1] is 5.03; with Human alphaherpesvirus 2 [2] it was 5.07. In data set [3], the CC50 at 72 h was above 100 µM. For the same molecule, the values for the selectivity ratio with HSV-1 and in the data set on HSV-2 were above 10.8 and above 11.7, respectively.

In the case of `COc1c(-c2ccc(O)cc2)cc2oc3cc(O)c(O)cc3c2c1O`, the outcome in the data set with Dengue virus and in the data set on Zika virus was inactive. Also, the result in the data set with Human alphaherpesvirus 1 [4], in the data set with Human alphaherpesvirus 1 [5], in the data set with Human alphaherpesvirus 1 [8], in the data set with Human alphaherpesvirus 2 [9], in the data set with Human alphaherpesvirus 1 [14] and in the data set with Human alphaherpesvirus 2 [15] was Active. The result in the data set on Human alphaherpesvirus 2 [16], in the data set with Human alphaherpesvirus 2 [17] and in the data set on Human alphaherpesvirus 2 [19] was Active. Further, the pEC50 in the data set on Human alphaherpesvirus 1 [1] is 5.66; in the data set on Human alphaherpesvirus 2 [2], 5.85. Moreover, the CC50 at 72 h in data set [3] is above 100 µM. Besides, the selectivity ratio in the data set with HSV-1 is above 45.7; in the data set on HSV-2, above 73.5. Also, the Activity result in the data set with Human alphaherpesvirus 1 [6], in the data set on Human alphaherpesvirus 2 [7], in the data set on Human alphaherpesvirus 1 [10], in the data set with Human alphaherpesvirus 1 [11], in the data set on Human alphaherpesvirus 2 [12] and in the data set with Human alphaherpesvirus 2 [13] was “Dose-Dependent Effect” each time. In addition, in [18], the inhibition entry is “inactive”. On Acetylcholinesterase, this molecule showed a pIC50 of 4.80.

As for `COc1c(-c2ccc(O)cc2)cc(O)c(-c2ccc(O)c(O)c2)c1O`, the pEC50 in the data set on Human alphaherpesvirus 1 [1] was 5.74; in the data set on Human alphaherpesvirus 2 [2], 5.64. Moreover, the CC50 at 72 h in data set [3] was above 100 µM. Also, the figures for the selectivity ratio with HSV-1 and in the data set on HSV-2 were above 54.4 and above 43.7, respectively.

For the origin of these results see ChEMBL document CHEMBL5038622, “p-Terphenyls as Anti-HSV-1/2 Agents from a Deep-Sea-Derived Penicillium sp” (J Nat Prod, 2021).
